# Patent US7671057B2, “Therapeutic agent for type II diabetes comprising protease-inhibiting compound” (Ono Pharmaceutical Co., Ltd., priority 2004, dated 2010)
# Marks after values point to notes of the source that are not given here.
# Key:
# Format in all cases: in vivo, mouse
# [1] = system: KK-A^y/Ta Jcl mice; assay: Blood-sugar level after single and repeated oral administration (Example 1)
# Protocol: On the day of initiation of administration (Day 1 of Administration), the obese/spontaneously type II diabetic mice; KK-A^y/Ta Jcl mice (male, 6-weeks aged, n=8) were treated through individual oral administration of the Test Compound 1 (ethyl N-allyl-N—[(E)-2-methyl-3-[4-(4-amidinophenoxycarbonyl)-phenyl]propenoyl]aminoacetate/methanesulfonate) of the present invention and the Control Compound 1 (5-{4-[2-(5-ethylpyridine-2-yl)ethoxy]benzyl}-1,3-thiazolidine-2,4-dione; pioglitazone) at the daily dose of 30 mg/kg, or the control medium (0.5% CMC), and blood was drawn from each animal through the orbital venous plexus 6 hours after administration. The blood-sugar levels were measured in accordance with the enzyme electrode method by use of Antosense II (manufactured by Daikin Kogyo KK of Japan). The said test was carried out while the animals were allowed free access to food and water.
# Following the above-described single administration, the repeated, once-a-day forced oral administration of each compound was performed at the same daily dose for the total period of 14 consecutive days. On Days 3 and 11, blood was drawn in the same manner as described above 6 hours after administration of each compound, followed by measurement of the blood-sugar level.
# (§1) The blood-sugar, TC, TG, IRI and IRG levels and the body weight were expressed as a mean value±standard deviation as calculated for each group of animals. With reference to the significance test between the group treated through administration of the medium and each group treated through administration of the compound, the F test was effected to analyze the data and then, the Student's t-test and Aspin-Welch's t-test were used in cases where the variance between the two groups was determined to be equal and unequal, respectively. Referring to the significance level, less than 5% (p<0.05) was considered significant, and the significance level was expressed as divided into the two events of less than 1% (**: p<0.01) and less than 5% (*: p<0.05).
# [2] = system: KK-A^y/Ta Jcl mice; assay: Plasma TC, TG, blood-sugar, IRI and IRG levels 3 hours subsequent to the glucose-loading test (Example 1); conditions: 3 hours subsequent to glucose-loading test, after 14 days 30 mg/kg p.o.
# Protocol: As from Day 14 afterwards, the animals after being fasted for 18 hours or more were loaded orally with a glucose solution (2 g/kg, 10 mL/kg), whereby the blood-sugar levels were measured before, and 120 min. after, the said glucose loading. Each of the compounds was given orally to the animals 3 hours prior to the glucose loading, and the whole blood was drawn from each of the animals under anesthesia. Each of the said blood samples was centrifuged to yield a blood plasma, and the resultant blood plasmas were all preserved under freezing in a ultra-low-temperature freezer for subsequent use in the below-described measurements.
# The blood-sugar level, total cholesterol level (hereinafter referred to briefly as “TC level”) and triglyceride level (hereinafter referred to briefly as “TG level”) were detected individually in accordance with the hexokinase/G-6-PDH method, enzyme method and GPO/HDAOS method, and measured with use of Biochemical Auto-Analyzer (Model AU 400, manufactured by Olympus Co. of Japan). The plasma insulin level (hereinafter referred to briefly as “IRI level”) and the plasma glucagon level (hereinafter referred to briefly as “IRG level”) were detected individually with the ELISA method (Lebisinsulin Mouse Insulin Kit, produced by K.K. Shibayagi of Japan) and the ELISA method (YK090 Glucagon EIA Kit, produced by K.K. Yanaihara Kenkyuu-sho of Japan), followed by measurement with use of a plate reader (Immuno Mini NJ-2300, Nalge Nunc International K.K. of Japan).
# as §1
# [3] = Body weight after repeated administration for 14 days (Example 1); conditions: after repeated administration for 14 consecutive days
# Protocol: Following the above-described single administration, the repeated, once-a-day forced oral administration of each compound was performed at the same daily dose for the total period of 14 consecutive days. […] The blood-sugar, TC, TG, IRI and IRG levels and the body weight were expressed as a mean value±standard deviation as calculated for each group of animals. With reference to the significance test between the group treated through administration of the medium and each group treated through administration of the compound, the F test was effected to analyze the data and then, the Student's t-test and Aspin-Welch's t-test were used in cases where the variance between the two groups was determined to be equal and unequal, respectively.
# [4] = repeated once-a-day oral 30 mg/kg, 6 hours after administration
structure (smiles),measurement,setting,value
"CCc1ccc(CCOc2ccc(CC3SC(=O)NC3=O)cc2)nc1 (stereo not drawn) [Control Compound 1, 5-{4-[2-(5-ethylpyridine-2-yl)ethoxy]benzyl}-1,3-thiazolidine-2,4-dione, reference compound]",Blood-sugar level before administration,"[1]; Day 1, before single oral administration of 30 mg/kg (baseline)",440.6 ± 24.3 mg/dL
same,Blood-sugar level Day 3,[1]; [4],224.4 ± 14.4 mg/dL
same,Blood-sugar level Day 11,[1]; [4],220.3 ± 8.2* mg/dL
same,Blood-sugar lowering action vs control medium group (in words),"[1]; single administration 30 mg/kg, 6 hours after administration",failed to elicit any significant blood-sugar lowering action
same,Blood-sugar level 6 hrs. after administration,"[1]; single oral administration, 30 mg/kg",287.9 ± 28.6 mg/dL
same,Blood-sugar level,[2],289.9 ± 20.6 mg/dL
same,IRG (plasma glucagon level),[2],488 ± 45.8 pg/mL
same,IRI (plasma insulin level),[2],1.25 ± 0.28 ng/mL
same,TC,[2],114.6 ± 4.8 mg/dL
same,TG,[2],72.7 ± 4.7 mg/dL
same,Effect on mouse body-weight vs control medium group (in words),[3],significant elevation in the body weight
same,Body weight,[3]; 30 mg/kg p.o.,31.7 ± 0.8 g
